Reference: publication PMC9775191, “A Subset Screen of the Compounds Australia Scaffold Library Identifies 7-Acylaminodibenzoxazepinones as Potent and Selective Hits for Anti-Giardia Drug Discovery” (Biomedicines, 2022)

System: G. duodenalis BRIS/91/HEPU/1279
Assay: Primary Giardia screen at 10 µM (live-cell imaging, automated counting)
Type: cell-based, Giardia duodenalis
Settings: for % Inhibition n=1 48h / % Inhibition n=1 24h: first singlicate assay; for % Inhibition n=2 24h / % Inhibition n=2 48h: re-assessment
Procedure: Each compound was assessed in singlicate, at a final concentration of 10 μM (0.4 μL of a 5 mM stock; diluted to a final volume of 200 μL in culture medium; 0.2% DMSO). […] Plates were incubated in sealed chambers filled with 3% O2, 5% CO2 in N2 and growth was assessed at 24 and 48 h using live cell imaging and automated counting as previously described. Growth inhibition was calculated by subtracting media only background counts and determining percentage growth relative to vehicle (0.2% DMSO) controls. The reliability of these assays was assessed by calculating Z’ factors for each plate as previously described.

SMILES: Cc1ccccc1C(=O)N1CCN(C(=O)c2[nH]nc3ccccc23)CC1 [SN00770261]
- % Inhibition n=1 48h: 25.4%

SMILES: CCN(c1ccc(OC)cc1)S(=O)(=O)c1csc(C(=O)N(C)C)c1 [SN00791689]
- % Inhibition n=1 48h: 2.7%

SMILES: O=C(c1cnccn1)N1CCN(C(=O)C2CCCC2)CC1 [SN00774707]
- % Inhibition n=1 48h: 8.7%

SMILES: Cc1ccc2oc(N3CCN(C(=O)C(C)c4ccccc4)CC3)nc2n1 (centres unmarked) [SN00786842]
- % Inhibition n=1 48h: 24.1%

SMILES: CCCNc1nc(N2CCN(CC)CC2)c2cnn(C)c2n1 [SN00792083]
- % Inhibition n=1 48h: 10.1%

SMILES: Cc1ccc(CNC(=O)C2(S(=O)(=O)c3ccc(Cl)cc3)CC2)cc1 [SN00784605]
- % Inhibition n=1 48h: 11.5%

SMILES: Cc1ccc(NS(=O)(=O)c2ccc(-c3nnc(C)o3)s2)cc1 [SN00789919]
- % Inhibition n=1 48h: 5.1%

SMILES: CCC(OC1CCCC1)C(=O)N1CCN(c2nccn2C)CC1 (centres unmarked) [SN00782691]
- % Inhibition n=1 48h: 0.0%

SMILES: Cc1ccc(-n2nc(C)c3sc(N4CCCN(C(=O)c5ccc6c(c5)OCO6)CC4)nc32)cc1 [SN00803168]
- % Inhibition n=1 48h: 0.0%

SMILES: Cc1nnc(-c2nnc(NCc3ccccc3)c3ccccc23)o1 [SN00800540]
- % Inhibition n=1 48h: 1.6%

SMILES: O=C(Nc1cccc(O)c1)c1cc(-c2cccnc2)on1 [SN00784502]
- % Inhibition n=1 48h: 24.5%

SMILES: CCCNC(=O)c1cncc(-c2cccc(NC(=O)CC)c2)c1 [SN00799189]
- % Inhibition n=1 48h: 0.0%

SMILES: CCCNS(=O)(=O)c1cc(-c2nc(-c3cccc(Cl)c3)cs2)n(C)c1C [SN00795169]
- Average % Inhibition 24h: 21.9%
- % Inhibition n=1 24h: 31.8%
- % Inhibition n=2 24h: 12.0%
- Average % Inhibition 48h: 32.8%
- % Inhibition n=1 48h: 47.2%
- % Inhibition n=2 48h: 18.5%

SMILES: CCCn1nc2c(cc1=O)CN(Cc1nc(-c3ccco3)no1)CC2 [SN00773497]
- % Inhibition n=1 48h: 0.0%

SMILES: COc1cccc(Nc2nc(N3CCN(c4ccccc4)CC3)nc3c2cnn3C)c1 [SN00788187]
- % Inhibition n=1 48h: 5.8%

SMILES: O=C(c1ccc(F)cc1)N1CCCN(Cc2noc(-c3ccccc3)n2)CC1 [SN00794182]
- % Inhibition n=1 48h: 33.4%

SMILES: CN(C)C(=O)Cc1nc(CN2CCc3c(ncn3C)C2)cs1 [SN00781984]
- % Inhibition n=1 48h: 0.0%

SMILES: CCc1nnsc1C(=O)N1CCCN(Cc2cnn(CC)c2)CC1 [SN00782455]
- % Inhibition n=1 48h: 0.0%

SMILES: COc1cc(CNCCNC(=O)c2nonc2N)ccc1OCc1ccc(F)cc1 [SN00784068]
- % Inhibition n=1 48h: 0.0%

SMILES: CCC(=O)N1CCC2(CC1)N=C(c1cccc(OC)c1)C(=O)N2 [SN00792731]
- % Inhibition n=1 48h: 18.9%

SMILES: CCCN(C)C(=O)c1ccc(-c2ccnc(N3CCCCC3)n2)cc1 [SN00799110]
- % Inhibition n=1 48h: 0.0%

SMILES: O=C(Cn1nc2n(c1=O)CCCC2)NCc1ccccc1Br [SN00801654]
- % Inhibition n=1 48h: 6.0%

SMILES: CCOC(=O)Cn1c(=O)n(-c2ccccc2)c(=O)c2cc3c(nc21)CC(C)(C)OC3 [SN00786524]
- % Inhibition n=1 48h: 18.7%

SMILES: COc1ccc(S(=O)(=O)N2CCc3nc(-c4ccccc4)ncc3C2)cc1 [SN00799076]
- % Inhibition n=1 48h: 6.9%

SMILES: CCCn1nccc1-c1csc(S(=O)(=O)NC(C)C)c1 [SN00797311]
- % Inhibition n=1 48h: 9.7%

SMILES: COc1cccc(-c2noc(C3CCCCN3C(=O)Nc3ccc(Cl)cc3Cl)n2)c1 (centres unmarked) [SN00802548]
- % Inhibition n=1 48h: 5.7%

SMILES: O=C(c1cccc(Br)c1)N1CCC(c2nc3ccccc3[nH]2)CC1 [SN00786922]
- % Inhibition n=1 48h: 0.0%

SMILES: COc1ccc(S(=O)(=O)N2CCN(c3cc(=O)n4nc(-c5ccccc5C)sc4n3)CC2)cc1 [SN00789606]
- % Inhibition n=1 48h: 10.6%

SMILES: CC1(C)C(NC(=O)Nc2ccc([N+](=O)[O-])cc2)C2CCCOC21 (centres unmarked) [SN00782105]
- % Inhibition n=1 48h: 16.3%

SMILES: c1ccc(-n2nnnc2N2CCN(C3CC3)CC2)cc1 [SN00770081]
- % Inhibition n=1 48h: 0.0%

SMILES: CC1(C)Cc2nc3[nH]c(=O)n(Cc4ccco4)c(=O)c3cc2CO1 [SN00786536]
- % Inhibition n=1 48h: 7.3%

SMILES: CN(C)C1(CNC(=O)COc2ccc(Br)cc2)CCCCC1 [SN00786247]
- % Inhibition n=1 48h: 5.1%

SMILES: COc1ccccc1NC(=O)c1cn2c3c(cc(Br)cc3c1=O)CC2 [SN00794326]
- % Inhibition n=1 48h: 11.4%

SMILES: Cc1cc(=O)n2nc(N(C)CC(=O)NC3CCCc4ccccc43)sc2n1 (centres unmarked) [SN00785631]
- % Inhibition n=1 48h: 35.0%

SMILES: CS(=O)(=O)c1nccn1Cc1ccccn1 [SN00783289]
- % Inhibition n=1 48h: 1.6%

SMILES: O=C(NCCCN1CCCC1)c1ccc2c(c1)N(CC(=O)N1CCCC1)C(=O)CO2 [SN00791845]
- % Inhibition n=1 48h: 0.0%

SMILES: O=C(Nc1cnn(Cc2cn3ccccc3n2)c1)Nc1ccc(F)cc1F [SN00774154]
- % Inhibition n=1 48h: 7.2%

SMILES: CC(C)(C)NS(=O)(=O)c1ccc(N2CCC(c3nnc4n3CCC4)CC2)c([N+](=O)[O-])c1 [SN00772456]
- % Inhibition n=1 48h: 4.6%

SMILES: CCOC(=O)N1CCN(C(=O)c2nn(-c3ccccc3)c3c2CCC3)CC1 [SN00778954]
- Average % Inhibition 24h: 6.2%
- % Inhibition n=1 24h: 12.5%
- % Inhibition n=2 24h: 0.0%
- Average % Inhibition 48h: 36.1%
- % Inhibition n=1 48h: 38.8%
- % Inhibition n=2 48h: 33.3%

SMILES: CCC(=O)N1CC(C(=O)NCCN(C)C)C2(CCOCC2)C1 (centres unmarked) [SN00802145]
- % Inhibition n=1 48h: 13.1%

SMILES: CC(C)CC(=O)NCc1nc2cccnc2n1Cc1ccc(F)cc1 [SN00793251]
- % Inhibition n=1 48h: 8.4%

SMILES: CCc1nc(-c2ccc3c(c2)CCN3C(=O)CCc2ccc(OC)cc2)no1 [SN00790989]
- % Inhibition n=1 48h: 14.1%

SMILES: CCCCS(=O)(=O)N1CCC2(CC1)CC2c1nc(-c2cccc(Cl)c2)no1 (centres unmarked) [SN00782685]
- % Inhibition n=1 48h: 0.0%

SMILES: COc1cccc(N2CCN(C(=O)C3CCN(c4nc(NC(C)=O)ns4)CC3)CC2)c1 [SN00800160]
- % Inhibition n=1 48h: 16.2%

SMILES: Cc1cc(C)n2nc(C(=O)N3CCC(CC(N)=O)CC3)nc2n1 [SN00775259]
- % Inhibition n=1 48h: 0.0%

SMILES: CCOC(=O)c1c(NC(=O)CN2C(=O)COc3ccc(Cl)cc32)sc2c1CCCC2 [SN00783847]
- % Inhibition n=1 48h: 26.0%

SMILES: O=c1onc(-c2cccnc2)n1Cc1noc(C2CC2)n1 [SN00772712]
- % Inhibition n=1 48h: 0.0%

SMILES: Cc1ccccc1C1CCCN1Cc1nc2c(cnn2C)c(=O)[nH]1 (centres unmarked) [SN00772523]
- Average % Inhibition 24h: 0.0%
- % Inhibition n=1 24h: 0.0%
- % Inhibition n=2 24h: 0.0%
- Average % Inhibition 48h: 28.2%
- % Inhibition n=1 48h: 56.4%
- % Inhibition n=2 48h: 0.0%

SMILES: CCCCC(=O)N1CCN(S(=O)(=O)c2c[nH]c3ncccc23)CC1 [SN00781078]
- % Inhibition n=1 48h: 2.4%

SMILES: Cc1c(C(=O)N2CCCCC2)c(S(=O)(=O)N2CCN(c3ccccn3)CC2)c(C)n1C [SN00791445]
- % Inhibition n=1 48h: 0.0%

SMILES: CC(C)S(=O)(=O)N1CCC(N(C)C2CCOCC2)CC1 [SN00801518]
- % Inhibition n=1 48h: 0.0%

SMILES: CC(=O)c1cccc(NS(=O)(=O)c2c(C)n[nH]c2C)c1 [SN00784818]
- % Inhibition n=1 48h: 5.0%

SMILES: C=CCc1ccc(OCC(O)CN2C(=O)NC(C)(c3ccccn3)C2=O)c(OC)c1 (centres unmarked) [SN00780622]
- % Inhibition n=1 48h: 48.2%

SMILES: Cc1ccsc1CCNC(=O)c1cnn2c(=O)c3c(n(C)c12)CCN(Cc1ccccc1)C3 [SN00788935]
- % Inhibition n=1 48h: 17.0%

SMILES: Cc1ccc(C(=O)N2CCN(c3nc4ccccc4n4cccc34)CC2)cc1 [SN00785395]
- % Inhibition n=1 48h: 25.5%

SMILES: CCOC(=O)c1sc2nc(CN3CCCCC3)nc(NCCC(=O)OC)c2c1C [SN00775388]
- % Inhibition n=1 48h: 0.0%

SMILES: O=S(=O)(Nc1ccc(OC2CCNCC2)nc1)c1ccccc1 [SN00799991]
- % Inhibition n=1 48h: 0.0%

SMILES: CC(=O)NC1CCCN(C(=O)c2cc3c(C)nn(Cc4ccc(F)cc4)c3s2)C1 (centres unmarked) [SN00774438]
- % Inhibition n=1 48h: 0.0%

SMILES: Cn1c(=O)c2cc(C(=O)NC3CCSC3=O)n(Cc3ccccc3)c2n(C)c1=O (centres unmarked) [SN00772623]
- % Inhibition n=1 48h: 25.0%

SMILES: CCCCN1CCN(C(=O)c2cc3c(=O)n(CC(C)C)c4ccccc4n3n2)CC1 [SN00802291]
- % Inhibition n=1 48h: 12.0%

SMILES: COc1ccc(-c2ccnc3c(C(=O)NCc4ccc5c(c4)OCO5)cnn23)cc1OC [SN00802455]
- % Inhibition n=1 48h: 16.8%

SMILES: Cc1noc(CN2C(=O)NC(C)(c3ccccc3)C2=O)n1 (centres unmarked) [SN00774045]
- % Inhibition n=1 48h: 0.0%

SMILES: CCN1c2cc(Cl)ccc2C(=O)NC12CCN(C(=O)Nc1ccc3c(c1)OCO3)CC2 [SN00800192]
- % Inhibition n=1 48h: 8.9%

SMILES: Cc1nc(S(=O)(=O)c2ccc(Br)cc2)c(NCc2ccccc2)o1 [SN00793357]
- % Inhibition n=1 48h: 27.4%

SMILES: Cc1ccc2oc(-c3noc(C(=O)NCC4CCCO4)n3)c(C)c2c1 (centres unmarked) [SN00795207]
- % Inhibition n=1 48h: 0.0%

SMILES: CC(C)(C)NC(=O)CCN1CCc2[nH]nc(C(F)(F)F)c2C1 [SN00783032]
- % Inhibition n=1 48h: 9.6%

SMILES: Cn1c(C(=O)NCc2ccc(F)cc2)cc2c(=O)n3ccccc3nc21 [SN00787284]
- % Inhibition n=1 48h: 0.0%

SMILES: Cc1nn(CCC(=O)Nc2cccc(F)c2)c(=O)c2noc(C)c12 [SN00778869]
- Average % Inhibition 24h: 0.0%
- % Inhibition n=1 24h: 0.0%
- % Inhibition n=2 24h: 0.0%
- Average % Inhibition 48h: 40.9%
- % Inhibition n=1 48h: 21.9%
- % Inhibition n=2 48h: 59.9%

SMILES: O=C(Nc1ccccc1)c1cc(-c2cccs2)n(C2CCS(=O)(=O)C2)n1 (centres unmarked) [SN00786904]
- % Inhibition n=1 48h: 1.7%

SMILES: CCCOc1ccc(C2OCCn3c(-c4ccc(OC)cc4)c4c(=O)n(C)c(=O)n(C)c4c32)cc1 (centres unmarked) [SN00786016]
- % Inhibition n=1 48h: 14.8%

SMILES: COc1cc(OC)c(NC(=O)N2CCN(c3nc4ccccc4n3C)CC2)cc1Cl [SN00794807]
- % Inhibition n=1 48h: 0.0%

SMILES: Cc1c(-c2nc(-c3cccnc3)no2)oc2ccc(S(=O)(=O)N3CCOCC3)cc12 [SN00791042]
- % Inhibition n=1 48h: 1.1%

SMILES: Cc1sc2ncn(CC3CCCO3)c(=O)c2c1C(=O)Nc1ccc(S(N)(=O)=O)nc1 (centres unmarked) [SN00793191]
- % Inhibition n=1 48h: 0.0%

SMILES: COCCN1C(=O)CCC(C(=O)O)C1c1cnn(-c2ccccc2)c1 (centres unmarked) [SN00783261]
- % Inhibition n=1 48h: 0.0%

SMILES: CCN1CCc2[nH]c3ccc(NC(=O)c4ccn(CC)n4)cc3c2C1 [SN00798224]
- % Inhibition n=1 48h: 1.1%
